Converted amounts (≈) assume the structure as drawn. Read-outs that look alike come from different tables or passages of the source.
Columns and labels:
[1] = Gravimetric emitted dose through DPI devices (TwinCaps, RS01) with NGI; assay type: physicochemical; conditions: 40 L/min, fill weight 60.00 mg
Procedure: The aerodynamic particle size distributions (APSDs) of the ASA powders were determined by evaluating emitted doses gravimetrically through two DPI devices, the TwinCaps and the RS01, using a Next Generation Impactor (NGI). Flow rates of approximately 40 and 100 L/min provided the 4 kPa pressure drop across the TwinCaps and RS01 devices, respectively, as stipulated by USP <601>, Inhalation and Nasal Drug Products: Aerosol, Sprays, and Powders—Performance Quality Tests.
The TwinCaps DPI was tested (2 actuations) using various loaded doses. Testing was performed to determine the approximate emitted dose from the device based on weight. Each test was performed using a freshly prepared NGI.
The Plastiape RS01 monodose DPI inhaler was also tested using various loaded doses in Size 3 HPMC capsules to determine approximate emitted dose based on the weight.

[2] = Solubility of aspirin in solvents; assay type: physicochemical; conditions: organic solvent or mixture
Text: The solubility of aspirin in a number of solvents was first evaluated prior to initiating controlled crystallization by addition of a suitable anti-solvent.

[3] = Solubility of aspirin in anti-solvents / dispersion media; assay type: physicochemical
Procedure: After considering a number of factors in the end it was determined that only n-heptane and toluene fulfilled all the requirements, and therefore these were selected for further evaluation. Suspensions of aspirin at 5% w/w were prepared with the various anti-solvents, by charging the required amount of anti-solvent, charging the required amount of aspirin, and then stirring until a homogeneous suspension was obtained. The suspensions were qualitatively evaluated at room temperature and then filtered using a 0.45 μm membrane, which was then placed in an oven and dried at 60° C. until the solvent had completely evaporated. A quantitative analysis was performed on the residue that remained in the membrane by weighing the membrane before and after the test.
5% w/w DSPC was used as it was found from previous work to mitigate irritation when inhaled. Additionally, soy lecithin was also used in the concentration of 0.1% w/w. As aspirin is insoluble in n-hexane, it was selected as a dispersion media for the micronized particles. Also, it has boiling point of 70° C. which is much below the melting point of aspirin (˜135° C.) and therefore, an inlet temperature of 85° C. should remove solvent without affecting the aspirin particles.

[4] = tested on: respiratory system; assay: Irritation / tolerability on inhalation; assay type: in vivo
Text: In addition, particles described herein can be mixed and/or coated with various pharmaceutically acceptable excipients. Excipients can be included in order to improve aerodynamic performance of the active drug, to improve bioavailability, increase stability, to modulate pH, to provide sustained release properties, to provide taste-masking of an irritating drug and/or to improve pharmacokinetic performance. In one embodiment, a dry powder comprises an amount of excipient effective to provide taste-masking of an irritating drug. In terms of suitable formulations for inhalation, not only is particle size important in order to reach a desired region of the respiratory system, but the formulation must be acceptable to patients. […] Consequently, it became necessary to find a suitable excipient in order to mask this property of aspirin.
Aspirin alone may be too irritating and evoke a choking response (e.g., coughing, bronchospasms) when inhaled. […] For example, symptoms of headache and nasal congestion may be alleviated within about 10 seconds, about 15 seconds, about 20 seconds, about 30 seconds, or within about 45 seconds.

[5] = cited from earlier work
[6] = tested on: major gastrointestinal and extracranial bleeds; conditions: oral aspirin; cited from earlier work
[7] = tested on: vascular events; conditions: cited from earlier work
[8] = tested on: platelet aggregation, platelet thromboxane production, urinary 2,3-dinor-TXB2 excretion; conditions: cited from earlier work
[9] = Pharmacokinetics of orally administered aspirin (literature); conditions: extrapolated from linear pharmacokinetics over 30-400 mg
[10] = 5% w/w suspension, room temperature, 0.45 μm filtration
[11] = after oral administration of ASA
[12] = following administration of ASA

## OC[C@H]1O[C@@H](O[C@H]2[C@H](O)[C@@H](O)C(O)O[C@@H]2CO)[C@H](O)[C@@H](O)[C@H]1O (stereo partly shown) [Lactose, lactose]
[1]
  % Emitted (based on fill weight): 94.5%
  Total Emitted Dose: 56.73 mg

## CC(=O)Oc1ccccc1C(=O)O [aspirin, acetylsalicylic acid]
[2]; DMF, 23 °C
  solubility: 500 mg/mL (≈ 2780 mM)
[2]; PEG-200, 23 °C
  solubility: 77 mg/mL (≈ 427 mM)
[2]; THF, 3 °C
  solubility: 250 mg/mL (≈ 1390 mM)
[2]; THF, 23 °C
  solubility: 500 mg/mL (≈ 2780 mM)
[2]; acetone, 3 °C
  solubility: 143 mg/mL (≈ 794 mM)
[2]; acetone, 23 °C
  solubility: 200 mg/mL (≈ 1110 mM)
[2]; ethanol, EtOH, 3 °C
  solubility: 63 mg/mL (≈ 350 mM)
[2]; ethanol, EtOH, 23 °C
  solubility: 125 mg/mL (≈ 694 mM)
[2]; methanol, MeOH, 3 °C
  solubility: 133 mg/mL (≈ 738 mM)
[2]; methanol, MeOH, 23 °C
  solubility: 167 mg/mL (≈ 927 mM)
[3]; [10]
  Behavior towards n-heptane: phobic behavior
  Solubility in toluene: partially soluble
[3]; n-hexane
  Solubility in n-hexane: insoluble
[4]
  irritation / tolerability when inhaled: quite irritating
[5]; [11]
  elimination half-life: 0.25 to 0.333 h
  time to peak plasma levels: about 20 minutes
[5]; oral, first pass effect
  fraction of oral dose bioavailable: one to two-thirds
[5]; oral, gut and liver
  fraction of oral dosage lost or inactivated by first pass effect: approximately ⅔
[6]
  increase of major gastrointestinal and extracranial bleeds: over 50%
[7]; Dutch TIA Study, any dose above 30 mg daily
  vascular events prevented: 13%
[7]; SALT, 75 mg/day, patients with cerebrovascular ischemic events
  risk of stroke or death: significantly reduces
[8]; 40 mg ASA versus 100 mg, healthy human subjects
  inhibition of indices of platelet activation: significantly less effective
[8]; plain versus enteric-coated 100 mg ASA
  inhibition of platelet aggregation, thromboxane production, urinary 2,3-dinor-TXB2 excretion: equally effective

## O=C(O)c1ccccc1O [salicylic acid]
[5]; [12]
  elimination half-life: 2 to 3 h
  period of increasing plasma levels: about 45 minutes
[9]
  expected peak circulating plasma level: ~10 µg/mL

From patent publication US9993488B2, “Dry powder formulations for inhalation” (OtiTopic Inc., priority 2014, dated 2018)
